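Step 1: Grow cells in 96-well plates. Step 2: Expose to compound for 48 hours at 5 concentrations. Step 3: Interpolate endpoints linearly; if unreached, use highest concentration. TGI marks complete inhibition of growth.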
Experiments:
Assay in all cases: NCI tumour cell line growth inhibition, 48 h
[1] = system: 786-0 renal
[2] = system: A498 renal
[3] = system: A549 NSCLC
[4] = system: ACHN renal
[5] = system: CCRF-CEM leukemia
[6] = system: COLO 205 colon
[7] = system: DLD-1 colon
[8] = system: DMS 114 small cell lung
[9] = system: EKVX NSCLC
[10] = system: HCC-2998 colon
[11] = system: HCT-116 colon
[12] = system: HCT-15 colon
[13] = system: HL-60(TB) leukemia
[14] = system: HOP-18 NSCLC
[15] = system: HOP-62 NSCLC
[16] = system: HOP-92 NSCLC
[17] = system: HT29 colon
[18] = system: IGROV1 ovarian
[19] = system: K-562 leukemia
[20] = system: KM12 colon
[21] = system: KM20L2 colon
[22] = system: LOX IMVI melanoma
[23] = system: LXFL 529 NSCLC
[24] = system: M14 melanoma
[25] = system: M19-MEL melanoma
[26] = system: MALME-3M melanoma
[27] = system: MOLT-4 leukemia
[28] = system: NCI-H226 lung
[29] = system: NCI-H23 lung
[30] = system: NCI-H460 lung
[31] = system: NCI-H522 lung
[32] = system: OVCAR-3 ovarian
[33] = system: OVCAR-5 ovarian
[34] = system: OVCAR-8 ovarian
[35] = system: RPMI-8226 leukemia
[36] = system: RXF 393 renal
[37] = system: RXF-631 renal
[38] = system: SF-268 CNS
[39] = system: SF-295 CNS
[40] = system: SF-539 CNS
[41] = system: SK-MEL-2 melanoma
[42] = system: SK-MEL-28 melanoma
[43] = system: SK-MEL-5 melanoma
[44] = system: SK-OV-3 ovarian
[45] = system: SN12C renal
[46] = system: SNB-19 CNS
[47] = system: SNB-75 CNS
[48] = system: SR leukemia
[49] = system: SW-620 colon
[50] = system: TK-10 renal
[51] = system: U251 CNS
[52] = system: UACC-257 melanoma
[53] = system: UACC-62 melanoma
[54] = system: UO-31 renal
[55] = system: XF 498 CNS
[56] = system: CAKI-1 renal
[57] = system: DMS 273 small cell lung
[58] = system: MCF7 breast
[59] = system: NCI/ADR-RES ovarian
[60] = system: P388 leukemia
[61] = system: P388/ADR leukemia
[62] = system: SN12K1 renal
[63] = system: SNB-78 CNS
[64] = system: OVCAR-4 ovarian

C=CC[P@]1(=O)O[C@H](c2ccccc2)C(C)N1C(C)C (some centres undefined)
TGI [1]: > 100 µM | TGI [2]: > 100 µM | TGI [3]: > 100 µM | TGI [4]: > 100 µM | TGI [5]: > 100 µM | TGI [6]: > 100 µM | TGI [7]: > 100 µM | TGI [8]: > 100 µM | TGI [9]: > 100 µM | TGI [10]: > 100 µM | TGI [11]: > 100 µM | TGI [12]: > 100 µM | TGI [13]: > 100 µM | TGI [14]: > 100 µM | TGI [15]: > 100 µM | TGI [16]: > 100 µM | TGI [17]: > 100 µM | TGI [18]: > 100 µM | TGI [19]: > 100 µM | TGI [20]: > 100 µM | TGI [21]: > 100 µM | TGI [22]: > 100 µM | TGI [23]: > 100 µM | TGI [24]: > 100 µM | TGI [25]: > 100 µM | TGI [26]: > 100 µM | TGI [27]: > 100 µM | TGI [28]: > 100 µM | TGI [29]: > 100 µM | TGI [30]: > 100 µM | TGI [31]: > 100 µM | TGI [32]: > 100 µM | TGI [33]: > 100 µM | TGI [34]: > 100 µM | TGI [35]: > 100 µM | TGI [36]: > 100 µM | TGI [37]: > 100 µM | TGI [38]: > 100 µM | TGI [39]: > 100 µM | TGI [40]: > 100 µM | TGI [41]: > 100 µM | TGI [42]: > 100 µM | TGI [43]: > 100 µM | TGI [44]: > 100 µM | TGI [45]: > 100 µM | TGI [46]: > 100 µM | TGI [47]: > 100 µM | TGI [48]: > 100 µM | TGI [49]: > 100 µM | TGI [50]: > 100 µM | TGI [51]: > 100 µM | TGI [52]: > 100 µM | TGI [53]: > 100 µM | TGI [54]: > 100 µM | TGI [55]: > 100 µM

CC1[C@@]2(O[C@@H]3C=C4C5CCC6Cc7nc8c(nc7C[C@@]6(C)C5C[C@H](O)[C@@]4(C)[C@]13O)CC1CCc3c(cc4c5c3C(O)C[C@H]5[C@@H](C)C3(O4)OC(C)(C)CC3O)[C@]1(C)C8)O[C@@](C)(CO)C[C@@H]2O (some centres undefined)
TGI [2]: 0.59 µM | TGI [3]: > 3.72 µM | TGI [56]: > 3.72 µM | TGI [5]: > 3.72 µM | TGI [6]: 1.07 µM | TGI [7]: > 3.72 µM | TGI [8]: > 3.72 µM | TGI [57]: 0.117 µM | TGI [9]: > 3.72 µM | TGI [10]: > 3.72 µM | TGI [11]: > 3.72 µM | TGI [12]: > 3.72 µM | TGI [13]: > 3.72 µM | TGI [14]: > 3.72 µM | TGI [15]: 0.263 µM | TGI [17]: 1.65 µM | TGI [18]: > 3.72 µM | TGI [19]: > 3.72 µM | TGI [20]: > 3.72 µM | TGI [21]: > 3.72 µM | TGI [22]: > 3.72 µM | TGI [25]: > 3.72 µM | TGI [26]: 2.22 µM | TGI [58]: > 3.72 µM | TGI [28]: 2.35 µM | TGI [30]: > 3.72 µM | TGI [31]: 2.39 µM | TGI [59]: > 3.72 µM | TGI [32]: > 3.72 µM | TGI [33]: 1.48 µM | TGI [34]: > 3.72 µM | TGI [60]: > 3.72 µM | TGI [61]: > 3.72 µM | TGI [35]: 0.21 µM | TGI [36]: 0.153 µM | TGI [38]: 2.65 µM | TGI [39]: 0.182 µM | TGI [40]: > 3.72 µM | TGI [41]: > 3.72 µM | TGI [43]: > 3.72 µM | TGI [44]: 0.976 µM | TGI [45]: > 3.72 µM | TGI [62]: 0.937 µM | TGI [46]: > 3.72 µM | TGI [47]: 0.372 µM | TGI [63]: 2.33 µM | TGI [49]: 1.1 µM | TGI [51]: 0.586 µM | TGI [52]: > 3.72 µM | TGI [53]: 0.748 µM | TGI [54]: > 3.72 µM | TGI [55]: 0.248 µM

COc1cc(/C=C/c2ccc(OC)c(OC)c2)oc(=O)c1
TGI [2]: > 250 µM | TGI [3]: > 250 µM | TGI [56]: > 114 µM | TGI [5]: > 250 µM | TGI [6]: > 250 µM | TGI [7]: > 250 µM | TGI [8]: > 250 µM | TGI [57]: > 250 µM | TGI [9]: > 116 µM | TGI [10]: > 250 µM | TGI [11]: > 250 µM | TGI [12]: > 250 µM | TGI [13]: > 184 µM | TGI [14]: > 250 µM | TGI [15]: > 250 µM | TGI [16]: > 250 µM | TGI [17]: > 250 µM | TGI [18]: > 250 µM | TGI [19]: > 250 µM | TGI [20]: > 250 µM | TGI [21]: > 250 µM | TGI [22]: > 250 µM | TGI [25]: > 250 µM | TGI [26]: > 250 µM | TGI [58]: > 250 µM | TGI [27]: > 250 µM | TGI [28]: > 250 µM | TGI [29]: > 250 µM | TGI [30]: > 250 µM | TGI [31]: > 250 µM | TGI [59]: > 250 µM | TGI [32]: > 250 µM | TGI [64]: > 250 µM | TGI [33]: > 250 µM | TGI [34]: > 11.6 µM | TGI [60]: > 250 µM | TGI [61]: > 250 µM | TGI [35]: > 250 µM | TGI [36]: > 216 µM | TGI [38]: > 250 µM | TGI [39]: > 250 µM | TGI [40]: > 250 µM | TGI [41]: > 250 µM | TGI [42]: > 250 µM | TGI [43]: > 250 µM | TGI [44]: > 250 µM | TGI [45]: > 250 µM | TGI [62]: > 250 µM | TGI [46]: > 250 µM | TGI [47]: > 227 µM | TGI [63]: > 250 µM | TGI [49]: > 250 µM | TGI [51]: > 250 µM | TGI [52]: > 250 µM | TGI [53]: > 250 µM | TGI [54]: > 250 µM | TGI [55]: > 250 µM
